Laboratory results taken from article PMC4151564 (Journal of medicinal chemistry, 2011).

Legend:
[1] = biological target: T1, eukaryotic topoisomerase IIα (Homo sapiens, UniProt P11388); test: Topo-IIα inhibition, agarose gel supercoiled DNA relaxation assay; type: biochemical; details: for Topo-IIα inhibition at 100 μM: 100 μM TSC ligand, gel Figure 1B
[2] = biological target: T1, eukaryotic topoisomerase IIα; test: Gel-based Topo-IIα inhibition mechanism assay; type: biochemical; details: 500 μM inhibitor, 4 units enzyme
[3] = biological target: T1, eukaryotic topoisomerase IIα; details: read-out: Topo-IIα inhibition IC50; literature range; cited from earlier work
[4] = test system: Topo-IIα; details: cited from earlier work

T1 sequence (P11388 whole entry): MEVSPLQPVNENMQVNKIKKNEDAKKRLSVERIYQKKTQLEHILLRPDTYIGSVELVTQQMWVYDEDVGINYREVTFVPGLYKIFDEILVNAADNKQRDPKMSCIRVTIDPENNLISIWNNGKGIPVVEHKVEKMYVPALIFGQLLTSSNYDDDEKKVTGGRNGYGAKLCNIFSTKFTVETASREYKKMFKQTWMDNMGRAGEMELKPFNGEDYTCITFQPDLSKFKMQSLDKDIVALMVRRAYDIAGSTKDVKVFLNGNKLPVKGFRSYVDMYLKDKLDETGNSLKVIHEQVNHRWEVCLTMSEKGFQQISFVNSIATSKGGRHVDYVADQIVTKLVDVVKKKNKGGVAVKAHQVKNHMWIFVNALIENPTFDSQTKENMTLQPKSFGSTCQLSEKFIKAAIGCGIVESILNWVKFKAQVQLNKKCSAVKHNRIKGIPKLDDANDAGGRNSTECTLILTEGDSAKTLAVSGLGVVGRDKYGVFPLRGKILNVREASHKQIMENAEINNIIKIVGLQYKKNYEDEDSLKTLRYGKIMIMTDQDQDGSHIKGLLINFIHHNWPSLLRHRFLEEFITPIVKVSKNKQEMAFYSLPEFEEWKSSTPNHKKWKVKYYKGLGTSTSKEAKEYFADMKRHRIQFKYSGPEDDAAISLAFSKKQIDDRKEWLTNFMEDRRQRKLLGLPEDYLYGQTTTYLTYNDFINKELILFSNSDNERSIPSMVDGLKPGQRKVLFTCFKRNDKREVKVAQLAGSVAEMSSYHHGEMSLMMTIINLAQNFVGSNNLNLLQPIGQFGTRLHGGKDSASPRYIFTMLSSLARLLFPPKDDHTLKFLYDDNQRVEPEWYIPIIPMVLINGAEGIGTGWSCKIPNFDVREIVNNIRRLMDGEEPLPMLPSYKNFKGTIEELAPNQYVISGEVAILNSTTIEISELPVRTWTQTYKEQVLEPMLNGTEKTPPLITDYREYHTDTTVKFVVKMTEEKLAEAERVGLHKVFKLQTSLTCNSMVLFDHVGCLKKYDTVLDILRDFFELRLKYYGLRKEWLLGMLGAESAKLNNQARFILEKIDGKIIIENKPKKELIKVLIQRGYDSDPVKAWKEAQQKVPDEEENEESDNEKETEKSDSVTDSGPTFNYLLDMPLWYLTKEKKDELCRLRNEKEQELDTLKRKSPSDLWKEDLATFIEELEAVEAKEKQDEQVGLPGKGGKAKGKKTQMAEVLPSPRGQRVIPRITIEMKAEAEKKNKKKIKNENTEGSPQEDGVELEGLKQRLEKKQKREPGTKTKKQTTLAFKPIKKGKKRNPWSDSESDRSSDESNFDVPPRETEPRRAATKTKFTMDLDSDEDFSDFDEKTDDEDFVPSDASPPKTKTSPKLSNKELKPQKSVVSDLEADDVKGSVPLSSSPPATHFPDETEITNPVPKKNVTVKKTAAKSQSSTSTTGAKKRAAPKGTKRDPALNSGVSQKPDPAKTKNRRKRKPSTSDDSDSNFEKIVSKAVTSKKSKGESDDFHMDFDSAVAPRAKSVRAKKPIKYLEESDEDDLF

Molecule	Topo-IIα inhibition at 100 μM [1]	Topo-IIα inhibition mechanism (formation of linear DNA) [2]	also measured
CNC(=S)N/N=C/c1ccccn1 [HFp4mT, (E)-N-Methyl-2-(pyridin-2-ylmethylene) hydrazinecarbothioamide]	displaying any degree of inhibition		
[Cl][Cu][Cl] [CuCl2]			Topo-IIα inhibition, control experiment ([1]; any concentrations below 500 μM): does not inhibit the enzyme
O=c1c(-c2ccc(O)cc2)coc2cc(O)cc(O)c12 [genistein]		produce discrete bands of linear DNA	
COc1cc(NS(C)(=O)=O)ccc1Nc1c2ccccc2nc2ccccc12 [m-AMSA]		produce discrete bands of linear DNA	
COc1cccc2c1C(=O)c1c(O)c3c(c(O)c1C2=O)C[C@@](O)(C(=O)CO)C[C@@H]3O[C@H]1C[C@H](N)[C@H](O)[C@H](C)O1 [doxorubicin]			IC50 [3]: 1 to 5 µM
CN(C)C(=S)NN=C(c1ccccn1)c1ccccn1 [Dp44mT, di-2-pyridylketone-4,4-dimethylthiosemicarbazone]			concentration at which in vivo Topo-IIα inhibition was found [4]: < 1 µM
Cc1c2ccncc2c(C)c2c1[nH]c1ccccc12 [ellipticine]		produce discrete bands of linear DNA	
CCNC(=S)N/N=C(\C)c1ccccn1 [HAp4eT, (E)-N-Ethyl-2-(1-(pyridin-2-yl)ethylidene)hydrazinecarbothioamide]	displaying any degree of inhibition		
2-Formylpyridine-N^4-allylthiosemicarbazonatochlorocopper (II) [Cu(Fp4alT)Cl]		completely inhibits Topo-IIα without promoting the formation of linear DNA products	
O=C1NC(=S)NC(=O)C1C(=O)Nc1ccccc1 [merbarone]			IC50 [3]: 40 to 50 µM
CCNC(=S)N/N=C/c1ccccn1 [HFp4eT, (E)-N-Ethyl-2-(pyridin-2-ylmethylene)hydrazinecarbothioamide]	displaying any degree of inhibition		
CNC(=S)N/N=C(\C)c1ccccn1 [HAp4mT, (E)-N-Methyl-2-(1-(pyridin-2-yl)ethylidene)hydrazinecarbothioamide]	displaying any degree of inhibition		
